Experimental data reported in US20080064071A1, “Zwitterionic detergents for the storage and use of DNA polymerases” (priority 2006, published 2008).
Values joined by “and” are separate entries in the source; they are usually repeats but may differ in a detail not shown here. Equal values may be shown once.

Columns and labels:
Pfu DNA polymerase = biological target: T1, Pfu DNA polymerase (Pyrococcus furiosus, UniProt P61875); test: Endpoint PCR with Pfu DNA polymerase, detergent/surfactant added to detergent-free PCR buffer; format: biochemical; conditions: for product yields on addition of zwitterionic detergent to PCR buffer (FIG. 5): versus buffer lacking detergent, which failed to generate product; for effectiveness relative to CHAPS and Anzergent 3-10 (FIG. 5): CHAPSO 0.05-0.2%, Anzergent 3-12 0.1-0.2%, in PCR buffer
T1 sequence (P61875 1-775): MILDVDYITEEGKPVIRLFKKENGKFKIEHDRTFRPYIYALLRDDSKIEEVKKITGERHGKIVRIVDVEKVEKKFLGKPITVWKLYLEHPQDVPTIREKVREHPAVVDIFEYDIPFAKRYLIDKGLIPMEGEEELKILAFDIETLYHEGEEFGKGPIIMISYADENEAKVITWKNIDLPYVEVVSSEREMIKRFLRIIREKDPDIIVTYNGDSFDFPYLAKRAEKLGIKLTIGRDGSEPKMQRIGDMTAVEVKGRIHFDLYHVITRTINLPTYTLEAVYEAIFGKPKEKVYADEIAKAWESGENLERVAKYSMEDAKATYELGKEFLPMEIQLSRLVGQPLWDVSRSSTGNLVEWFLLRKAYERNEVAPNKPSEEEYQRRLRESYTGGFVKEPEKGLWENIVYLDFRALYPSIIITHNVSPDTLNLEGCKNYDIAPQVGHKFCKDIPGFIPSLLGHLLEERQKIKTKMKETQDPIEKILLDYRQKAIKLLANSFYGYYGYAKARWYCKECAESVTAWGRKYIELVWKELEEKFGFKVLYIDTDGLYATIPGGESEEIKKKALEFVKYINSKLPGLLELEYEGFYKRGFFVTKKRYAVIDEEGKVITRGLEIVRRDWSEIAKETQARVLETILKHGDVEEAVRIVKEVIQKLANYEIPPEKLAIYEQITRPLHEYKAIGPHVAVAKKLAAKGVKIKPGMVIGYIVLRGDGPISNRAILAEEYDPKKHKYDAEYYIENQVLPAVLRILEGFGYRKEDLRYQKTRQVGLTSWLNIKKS
Description: Pfu (exo+ and exo−) fusion DNA polymerase (e.g., as described in U.S. patent application Ser. No.: 11/488,535, filed Jul. 17, 2006, and herein incorporated by reference in its entirety), cPfu DNA polymerase (Stratagene catalog #600154), and PEF were purified using standard production protocols (no detergent present), except that non-ionic detergents were omitted from the final storage buffers. Enzymes were stored at −20° C. in 50 mM Tris-HCl (pH 8.2), 0.1 mM EDTA, 1 mM DTT, and 50% glycerol. DNA polymerase storage buffers were additionally supplemented with one or more zwitterionic detergents, in percentages (v/v) ranging from 0.05% to 0.5%.
PCR reaction buffers were prepared without non-ionic detergents (“DF buffer”, detergent-free buffer). For example, 1× cPfu DF-buffer contains 10 mM KCl, 10 mM (NH4)2SO4, 20 mM Tris HCl (pH 8.8), 2 mM MgSO4, and 100 ug/ml BSA. Detergent-free versions of Pfu fusion buffers were also prepared, and consisted of: 40 mM Tris-SO4 (pH 10), 15 mM K2SO4, 8 mM (NH4)2SO4, 2 mM MgSO4 (1× Pfu fusion DF-buffer I) or 30 mM Tris-SO4 (pH 10), 40 mM K2SO4, 1.5 mM (NH4)2SO4, 2 mM MgSO4 (1× Pfu fusion DF-buffer II).
PCR reaction buffers were supplemented with 0.1% Triton X100 (non-ionic detergent) or with one or more zwitterionic detergents or non-detergent surfactants. For example, zwitterionic detergents CHAPS, CHAPSO, 3-10, and 3-12 were obtained from AnaTrace, Inc. (Maumee, Ohio) and added to DF-buffers in percentages (v/v) ranging from 0.05% to 0.5%. The non-detergent surfactant, Surfynol 465, was purchased from Air Products and used in a similar fashion.
For the 0.9 kb and 6 kb systems, PCR reactions (50 ul) were conducted with 40 ng cPfu DNA polymerase in IX cPfu DF-buffer or with 28 ng or 224 ng Pfu fusion DNA polymerase in 1× Pfu fusion DF-buffer I or DF-buffer II, respectively. PCR reactions also contained 2 U/50 ul Pyrococcus furiosus dUTPase (PEF), 100 ng of human genomic DNA, 250 uM each dNTP, and 100 ng of each primer. For the 9 kb system, PCR reactions (50 ul) consisted of 80 ng Pfu, 1.5× cPfu DF-buffer, 2U Pyrococcus furiosus dUTPase (PEF), 200 ng of human genomic DNA, 500 uM each dNTP, and 200 ng of each primer. PCR reaction buffers were supplemented with 0.1% Triton X100 or with zwitterionic detergent(s).

[1] = system: Pfu fusion DNA polymerase; test: Endpoint PCR with Pfu fusion DNA polymerase, detergent/surfactant added to detergent-free PCR buffer; format: biochemical, Pyrococcus furiosus; conditions: for PCR amplification with detergent alone (FIG. 2) / PCR product with detergent alone (FIG. 3): 0.05% of the individual detergent; for detergent concentration at which amplifications generated product yields (FIG. 1): individual detergent in fusion PCR buffer, genomic DNA targets, no product in absence of detergent
[2] = system: Pfu fusion DNA polymerase; test: SYBR Green QPCR with Pfu fusion DNA polymerase; format: biochemical, Pyrococcus furiosus; conditions: for Effective range, concentration of each detergent in combination, SYBR Green QPCR: combination CHAPS (0.1%) + Anz. 3-10 (0.02-0.15%); for Optimal range, concentration of each detergent in combination, SYBR Green QPCR: combination CHAPS (0.1%) + Anz. 3-10 (0.05-0.15%); for Effective range, Detergent 1 (single detergent), SYBR Green QPCR / Optimal range, Detergent 1 (single detergent), SYBR Green QPCR: detergent alone; for QPCR amplification efficiency, total fluorescence and Ct values versus 0.1% Triton X100 (FIG. 7) / amplification efficiency, total fluorescence and Ct values (FIG. 8): 0.5% detergent; for amplification efficiency, total fluorescence and Ct values (FIG. 8): aldolase and GDH gene targets
Description: QPCR reactions contained DNA or cDNA template, varying amounts of primer (see Table 3 below), 300 uM each dNTP, 4 ng/ul exo Pfu fusion, 6 ng/ul hot start IgG, 0.4ng/ul single-stranded DNA-binding protein, 1× Pfu fusion DF-buffer II (pH 9), 4% DMSO, and 8% glycerol. QPCR reactions were supplemented with 0.1% Triton X100 or zwitterionic detergent, and with 0.5× SYBR Green (Molecular Probes S-7567). Reactions were cycled on the MX3000P Real-Time PCR System using the following conditions: (1 cycle) 95° C. 5 min; (40 cycles) 95° C. 10 sec, 60° C. 30 sec.

[3] = system: Pfu and Pfu fusion DNA polymerase; test: Endpoint PCR, enhancing detergents and detergent combinations (Table 2); format: biochemical, Pyrococcus furiosus; conditions: for Effective range, Detergent 1 (single detergent) / Optimal range, Detergent 1 (single detergent): endpoint PCR, detergent alone
[4] = system: Pfu fusion DNA polymerase; test: Accelerated stability study of Pfu fusion DNA polymerase in storage buffer, residual activity by 0.9 kb PCR; format: biochemical, Pyrococcus furiosus; conditions: detergent in storage buffer
Description: Accelerated stability studies were performed to illustrate the stabilizing effects of zwitterionic detergents. Pfu fusion DNA polymerase was purified in the absence of detergents and then diluted to 28 ng/ul in storage buffer lacking detergent or storage buffers containing either conventional non-ionic detergent (0.1% Igepal/0.1% Triton X100) or various zwitterionic detergents. Protein samples were stored at −20° C. or were heated at 95° C. for varying lengths of time. Residual activity was assayed by amplifying a 0.9 kb genomic target in PCR in fusion DF-buffer supplemented with either 0.1% Triton X100 or 0.1% CHAPSO/0.1% Anzergent 3-12.

Taq DNA polymerase = Taq DNA polymerase (Thermus aquaticus, UniProt P19821); conditions: disclosed in U.S. Pat. No. 6,127,155; cited from earlier work
Taq DNA polymerase, sequence (P19821 whole entry): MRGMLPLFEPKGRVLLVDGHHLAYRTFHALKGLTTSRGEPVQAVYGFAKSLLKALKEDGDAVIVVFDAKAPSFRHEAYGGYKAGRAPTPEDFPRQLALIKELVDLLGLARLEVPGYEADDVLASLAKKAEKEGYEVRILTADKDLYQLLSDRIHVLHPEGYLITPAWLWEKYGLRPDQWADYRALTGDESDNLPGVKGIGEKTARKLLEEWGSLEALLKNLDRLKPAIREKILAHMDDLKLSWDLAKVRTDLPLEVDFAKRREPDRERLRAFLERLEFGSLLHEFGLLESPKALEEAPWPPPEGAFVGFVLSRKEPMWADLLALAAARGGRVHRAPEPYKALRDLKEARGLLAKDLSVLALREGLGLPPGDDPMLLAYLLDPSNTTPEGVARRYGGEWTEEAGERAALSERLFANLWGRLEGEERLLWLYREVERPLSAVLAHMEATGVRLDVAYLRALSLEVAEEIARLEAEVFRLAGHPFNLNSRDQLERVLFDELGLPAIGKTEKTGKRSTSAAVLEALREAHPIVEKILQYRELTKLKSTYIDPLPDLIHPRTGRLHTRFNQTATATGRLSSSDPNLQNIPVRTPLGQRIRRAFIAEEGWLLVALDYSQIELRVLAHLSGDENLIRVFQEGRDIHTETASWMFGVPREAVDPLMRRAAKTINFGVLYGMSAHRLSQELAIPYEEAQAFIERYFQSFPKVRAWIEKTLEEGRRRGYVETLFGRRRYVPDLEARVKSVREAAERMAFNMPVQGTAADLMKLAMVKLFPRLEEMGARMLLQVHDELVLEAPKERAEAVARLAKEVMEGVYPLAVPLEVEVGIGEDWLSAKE

[5] = combination CHAPS (0.05, 0.1%) + Anz. 3-10 (0.1-0.5%)
[6] = combination CHAPSO (0.1%) + Anz. 3-10 (0.05-0.4%)
[7] = combination CHAPSO (0.1%) + Anz. 3-10 (0.05-0.5%)
[8] = combination CHAPS (0.05%) + Anz. 3-12 (0.05-0.3%)
[9] = combination CHAPS (0.05%) + Anz. 3-12 (0.05-0.5%)
[10] = combination CHAPS (0.1%) + Anz. 3-12 (0.05-0.5%)
[11] = combination CHAPS (0.05-0.5%) + CHAPSO (0.05-0.3%)

Compound	product yields on addition of zwitterionic detergent to PCR buffer (FIG. 5) (Pfu DNA polymerase)	PCR amplification with detergent alone (FIG. 2) [1]	detergent concentration at which amplifications generated product yields (FIG. 1) [1]	Effective range, concentration of each detergent in combination, SYBR Green QPCR [2]	Optimal range, concentration of each detergent in combination, SYBR Green QPCR [2]	Effective range, Detergent 1 (single detergent), SYBR Green QPCR [2]	Optimal range, Detergent 1 (single detergent), SYBR Green QPCR [2]	Optimal range, concentration of each detergent in combination [3, 6]	Effective range, concentration of each detergent in combination [3, 7]	Effective range, Detergent 1 (single detergent) [3]	Optimal range, Detergent 1 (single detergent) [3]	effectiveness relative to CHAPS and Anzergent 3-10 (FIG. 5) (Pfu DNA polymerase)	PCR product with detergent alone (FIG. 3) [1]	Optimal range, concentration of each detergent in combination [3, 8]	Effective range, concentration of each detergent in combination [3, 9]	Effective range, concentration of each detergent in combination [3, 10]	Optimal range, concentration of each detergent in combination [3, 10]	effect on stability of Pfu fusion DNA polymerase (FIG. 6) [4]	QPCR amplification efficiency, total fluorescence and Ct values versus 0.1% Triton X100 (FIG. 7) [2]	amplification efficiency, total fluorescence and Ct values (FIG. 8) [2]	further results
CCCCCCCCCC[N+](C)(C)CCCS(=O)(=O)[O-] [Anzergent 3-10, n-Decyl-N,N-dimethyl-3-ammonio-1-propanesulfonate]	dramatically improved	little amplification	0.4-0.8%	Anz. 3-10 (0.02-0.15%)	Anz. 3-10 (0.05-0.15%)	Anz. 3-10 (0.1-0.3%)	Anz. 3-10 (0.2%)	Anz. 3-10 (0.05-0.4%)	Anz. 3-10 (0.05-0.5%)	Anz. 3-10 (0.4-0.8%)	Anz. 3-10 (0.4-0.8%)										detergent concentration with favorable result on PCR amplification (FIG. 2) ([1]; individual detergent added to the reaction): 0.4% and 0.8%; Effective range, concentration of each detergent in combination [3, 5]: Anz. 3-10 (0.1-0.5%); Optimal range, concentration of each detergent in combination [3, 5]: Anz. 3-10 (0.1-0.5%)
CCCCCCCCCCCC[N+](C)(C)CCCS(=O)(=O)[O-] [Anzergent 3-12, n-Dodecyl-N,N-dimethyl-3-ammonio-1-propanesulfonate]	dramatically improved		0.1-0.2%			Anz. 3-12 (0.1-0.2%)	Anz. 3-12 (0.15-0.2%)			Anz. 3-12 (0.1-0.4%)	Anz. 3-12 (0.1-0.2%)	somewhat more effective	did not show observable levels of PCR product	Anz. 3-12 (0.05-0.3%)	Anz. 3-12 (0.05-0.5%)	Anz. 3-12 (0.05-0.5%)	Anz. 3-12 (0.05-0.5%)	enhance the stability			Effective range, concentration of each detergent in combination ([3]; combination CHAPSO (0.05%, 0.1%) + Anz. 3-12 (0.05-0.5%)): Anz. 3-12 (0.05-0.5%)
C[C@H](CCC(=O)NCCC[N+](C)(C)CC(O)CS(=O)(=O)[O-])[C@H]1CC[C@H]2[C@@H]3[C@H](O)C[C@@H]4C[C@H](O)CC[C@]4(C)[C@H]3C[C@H](O)[C@]12C (some centres unmarked) [CHAPSO]	dramatically improved	little amplification	0.15-0.3%			CHAPSO (0.1-0.75%)	CHAPSO (0.2-0.5%)	CHAPSO (0.1%)	CHAPSO (0.1%)	CHAPSO (0.1-0.8%)	CHAPSO (0.15-0.35%)	somewhat more effective	did not show observable levels of PCR product					enhance the stability	comparable	favorable	Effective range, concentration of each detergent in combination [3, 11]: CHAPSO (0.05-0.3%)
C[C@H](CCC(=O)NCCC[N+](C)(C)CCCS(=O)(=O)[O-])[C@H]1CC[C@H]2[C@@H]3[C@H](O)C[C@@H]4C[C@H](O)CC[C@]4(C)[C@H]3C[C@H](O)[C@]12C [CHAPS]	dramatically improved			CHAPS (0.1%)	CHAPS (0.1%)	CHAPS (0.1-0.5%)	CHAPS (0.5%)			CHAPS (0.2-0.8%)	CHAPS (0.2-0.4%)			CHAPS (0.05%)	CHAPS (0.05%)	CHAPS (0.1%)	CHAPS (0.1%)	enhance the stability	comparable	favorable	Effective range, concentration of each detergent in combination [3, 11]: CHAPS (0.05-0.5%)
NP-40																					effect on Taq DNA polymerase (Taq DNA polymerase): stabilize
